The conditions of this data set: 101.33 kPa, Liquid.

The mass density is mass per unit of volume.

± gives the expanded uncertainty stated by the source.

On to `OCCN1CCOCC1` [4-morpholineethanol], for which the mass density is listed as 1076.58 ± 0.97 kg/m3 (293.15 K); 1071.3 ± 0.94 kg/m3 (298.15 K); 1066.51 ± 0.92 kg/m3 (303.15 K); 1059.19 ± 0.88 kg/m3 (313.15 K); 1052.64 ± 0.84 kg/m3 (323.15 K).
For the compound `CCCCO` [butan-1-ol], the mass density (293.15 K) is reported as 809.52 ± 0.46 kg/m3; the mass density (298.15 K) came out at 805.88 ± 0.47 kg/m3; the mass density (303.15 K) came to 801.99 ± 0.47 kg/m3; the mass density (313.15 K) is listed as 794.34 ± 0.48 kg/m3; the mass density (323.15 K) came out at 786.67 ± 0.5 kg/m3.
The like results for `CCC(C)O` (stereo not given) [butan-2-ol] were, in that order, 805.56 ± 1.3 kg/m3, 802.43 ± 1.4 kg/m3, 797.76 ± 1.4 kg/m3, 790.11 ± 1.4 kg/m3 and 784.92 ± 1.4 kg/m3.
For the compound `CCO` [ethanol], the mass density by setting is: (293.15 K) 788.33 ± 0.49 kg/m3; (298.15 K) 784.97 ± 0.5 kg/m3; (303.15 K) 780.72 ± 0.5 kg/m3; (313.15 K) 772.61 ± 0.52 kg/m3; (323.15 K) 764.14 ± 0.53 kg/m3.
Regarding `CCCO` [propan-1-ol], the mass density by setting is: (293.15 K) 803.56 ± 0.47 kg/m3; (298.15 K) 799.71 ± 0.48 kg/m3; (303.15 K) 795.58 ± 0.48 kg/m3; (313.15 K) 787.34 ± 0.49 kg/m3; (323.15 K) 778.97 ± 0.51 kg/m3.
For the compound `CC(C)O` [propan-2-ol], the mass density by setting is: (293.15 K) 785.18 ± 0.5 kg/m3; (298.15 K) 781.31 ± 0.5 kg/m3; (303.15 K) 776.66 ± 0.51 kg/m3; (313.15 K) 767.83 ± 0.52 kg/m3; (323.15 K) 758.71 ± 0.54 kg/m3.
